Where “and” joins values, the source holds several entries; their conditions need not be identical. Equal entries are not always repeated.
T1: C. elegans APP-1 (X-prolyl aminopeptidase, aminopeptidase P1) (Caenorhabditis elegans, UniProt O44750)
T1 construct: full length (residues 1-616), N-terminal His-tag kept, pET19b, E. coli BL21 Star (DE3); homodimer, monomer 71977 Da by MS; two Zn2+ per monomer in crystal
T1 sequence (O44750 1-616): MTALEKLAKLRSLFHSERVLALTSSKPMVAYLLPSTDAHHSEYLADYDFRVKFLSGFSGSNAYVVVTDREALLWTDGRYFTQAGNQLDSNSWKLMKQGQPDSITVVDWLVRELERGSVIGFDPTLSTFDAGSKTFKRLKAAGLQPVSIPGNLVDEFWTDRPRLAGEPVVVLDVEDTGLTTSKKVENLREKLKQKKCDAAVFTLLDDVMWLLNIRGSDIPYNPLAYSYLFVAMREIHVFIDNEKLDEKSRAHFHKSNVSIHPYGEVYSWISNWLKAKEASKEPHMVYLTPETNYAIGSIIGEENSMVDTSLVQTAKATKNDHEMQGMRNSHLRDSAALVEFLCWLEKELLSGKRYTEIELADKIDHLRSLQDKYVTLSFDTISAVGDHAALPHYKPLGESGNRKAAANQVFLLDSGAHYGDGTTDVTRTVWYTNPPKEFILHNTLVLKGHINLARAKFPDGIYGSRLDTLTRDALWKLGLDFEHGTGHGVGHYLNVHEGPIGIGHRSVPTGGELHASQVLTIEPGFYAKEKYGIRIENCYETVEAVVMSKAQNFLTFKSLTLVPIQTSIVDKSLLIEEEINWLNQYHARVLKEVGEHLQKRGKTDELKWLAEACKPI


Columns and labels:
[1] = biological target: T1, C. elegans APP-1 (X-prolyl aminopeptidase, aminopeptidase P1); experiment: HPLC assay of bradykinin cleavage ([…] nm); assay type: biochemical
[2] = biological target: the molecule itself; experiment: AUC; sedimentation velocity; 0.3 mg/ml APP-1 dialysed against 10 mM Tris/HCl pH 7.5, 150 mM KCl; 40,000 rpm, 20 °C; Rayleigh interference and absorbance at 275 nm

inhibition at 10 µM [1] [%] | Molecule | stoichiometry N [2]
92 | C[C@H](NC(=O)[C@@H]1CCCN1C(=O)[C@@H]1CCCN1C(=O)[C@@H](O)[C@H](N)Cc1ccccc1)C(N)=O [apstatin] | 
 | Caenorhabditis elegans aminopeptidase P1 (APP-1), recombinant, His-tagged (enzyme, C. elegans, UniProt O44750 1-616, looked up, Aminopeptidase P1 (APP-1, X-prolyl aminopeptidase), C. elegans, cytosolic; cDNA amplified with primers from the start codon to the stop codon; residues 1-616 (N-terminal domain 1-163, middle domain 164-318, C-terminal domain 319-616); N-terminal His tag and linker come from pET19b and were not removed; Mass spectrometry fits the His-tagged protein after removal of the start methionine (calculated …)) MTALEKLAKLRSLFHSERVLALTSSKPMVAYLLPSTDAHHSEYLADYDFRVKFLSGFSGSNAYVVVTDREALLWTDGRYFTQAGNQLDSNSWKLMKQGQPDSITVVDWLVRELERGSVIGFDPTLSTFDAGSKTFKRLKAAGLQPVSIPGNLVDEFWTDRPRLAGEPVVVLDVEDTGLTTSKKVENLREKLKQKKCDAAVFTLLDDVMWLLNIRGSDIPYNPLAYSYLFVAMREIHVFIDNEKLDEKSRAHFHKSNVSIHPYGEVYSWISNWLKAKEASKEPHMVYLTPETNYAIGSIIGEENSMVDTSLVQTAKATKNDHEMQGMRNSHLRDSAALVEFLCWLEKELLSGKRYTEIELADKIDHLRSLQDKYVTLSFDTISAVGDHAALPHYKPLGESGNRKAAANQVFLLDSGAHYGDGTTDVTRTVWYTNPPKEFILHNTLVLKGHINLARAKFPDGIYGSRLDTLTRDALWKLGLDFEHGTGHGVGHYLNVHEGPIGIGHRSVPTGGELHASQVLTIEPGFYAKEKYGIRIENCYETVEAVVMSKAQNFLTFKSLTLVPIQTSIVDKSLLIEEEINWLNQYHARVLKEVGEHLQKRGKTDELKWLAEACKPI | 2 and 4

Reference: article PMC4404410, “Crystal structure of X‐prolyl aminopeptidase fromCaenorhabditis elegans: A cytosolic enzyme with a di‐nuclear active site” (FEBS Open Bio, 2015)
